Experimental findings from patent US7312231B2, “Quinuclidine carbamate derivatives and their use as M3 antagonists” (priority 2000, dated 2007) are described below.

T1 sequence (P20309 whole entry): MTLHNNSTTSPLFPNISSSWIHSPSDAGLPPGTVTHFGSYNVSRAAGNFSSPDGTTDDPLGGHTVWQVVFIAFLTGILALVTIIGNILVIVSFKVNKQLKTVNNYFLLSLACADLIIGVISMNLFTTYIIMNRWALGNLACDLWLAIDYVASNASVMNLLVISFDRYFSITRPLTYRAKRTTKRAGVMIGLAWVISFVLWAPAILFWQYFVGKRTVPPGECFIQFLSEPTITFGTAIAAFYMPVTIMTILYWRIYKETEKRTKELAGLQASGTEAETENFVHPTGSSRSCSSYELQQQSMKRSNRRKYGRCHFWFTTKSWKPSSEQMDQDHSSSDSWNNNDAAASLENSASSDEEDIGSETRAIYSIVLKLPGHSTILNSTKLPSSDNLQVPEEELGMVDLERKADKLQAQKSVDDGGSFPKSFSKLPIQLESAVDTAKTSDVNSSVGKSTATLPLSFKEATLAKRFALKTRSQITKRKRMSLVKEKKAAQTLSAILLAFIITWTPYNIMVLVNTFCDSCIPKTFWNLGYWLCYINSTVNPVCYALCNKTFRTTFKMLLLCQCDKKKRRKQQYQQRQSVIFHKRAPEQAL

Test system in one data set: not given
Assay: not given
Conditions: not given
In turn, `CCCCN(C(=O)O[C@H]1C[N+]2(CC=Cc3ccccc3)CCC1CC2)c1ccccc1.[Br-]` [Example 58, 3-(R)(Butylphenylcarbamoyloxy)-1-(3-phenylallyl)-1-azoniabicyclo[2.2.2]octane; bromide] had a melting point of 144 °C.
The same measure, in the same setting: the same measure for `O=C(O[C@@H]1C[N+]2(CCCc3ccccc3)CCC1CC2)N(Cc1ccccc1)c1ccccc1.[Br-]`: 64 °C; for `C=CC[N+]12CCC(CC1)[C@@H](OC(=O)N(Cc1ccccc1)c1ccccc1)C2.[Br-]` [Example 6, 1-Allyl-3-(R)(benzylphenylcarbamoyloxy)-1-azoniabicyclo[2.2.2]octane; bromide]: 70 °C.
The same measure, in the same setting: the same measure for `C=CC[N+]12CCC(CC1)[C@@H](OC(=O)N(CCCC)c1ccccc1)C2.[Br-]`: 141 °C; for `O=C(O[C@H]1C[N+]2(CCCc3ccccc3)CCC1CC2)N(Cc1ccccc1)c1ccccc1.[Br-]` [Example 31, 3-(R)(Benzylphenylcarbamoyloxy)-1-(3-phenylpropyl)-1-azoniabicyclo[2.2.2]octane; bromide]: 101 °C; for `O=C(O[C@H]1C[N+]2(CCc3ccccc3)CCC1CC2)N(Cc1ccccc1)c1ccccc1.[Br-]`: 81 °C.
Same read-out and setting: the same measure for `O=C(O[C@H]1C[N+]2(CC=Cc3ccccc3)CCC1CC2)N(Cc1ccccc1)c1ccccc1.[Br-]` [Example 5, 3-(R)(Benzylphenylcarbamoyloxy)-1-(3-phenylallyl)-1-azoniabicyclo[2.2.2]octane; bromide]: 129 °C.
In the case of `CCCCN(C(=O)O[C@H]1C[N+]2(CCCc3ccccc3)CCC1CC2)c1ccccc1.[Br-]`, the melting point came to 120 °C.
Compound `CCCCN(C(=O)O[C@H]1C[N+]2(CCc3ccccc3)CCC1CC2)c1ccccc1.[Br-]` gave a melting point of 139 °C.

Another data set concerns the target T1, human muscarinic M3 receptors (Homo sapiens, UniProt P20309).
T1 construct: expressed in transfected cells; host or cells: Chinese hamster ovary-K1 (CHO) cells, membrane preparations
As to the kind of experiment: biochemical.
Conditions: not given
In kind it is binding. As for the experimental part: The binding of [^3H]-NMS to human muscarinic receptors was performed according to Waelbroek et al (1990), Mol. Pharmacol., 38:267–273. Assays were carried out at 25° C. Membrane preparations from stably transfected Chinese hamster ovary-K1 cells (CHO) expressing the genes for the human muscarinic M3 receptors were used.
For determination of IC50, membrane preparations were suspended in DPBS to a final concentration of 89 μg/ml for the M3 subtype. The membrane suspension wasincubated with the tritiated compound for 60 min. After incubation the membrane fraction was separated by filtration and the bound radioactivity determined. […] At least six concentrations were assayed in duplicate to generate individual displacement curves.
On to `CCCCCN(C(=O)O[C@H]1CN2CCC1CC2)c1ccccc1` [Example 104, Pentylphenylcarbamic acid 1-azabicyclo[2.2.2]oct-3-(R)yl ester], for which half-maximal inhibition (IC50) required 19 nM.

Still in this data set, the particulars now being: [3H]-NMS displacement, membranes of CHO-K1 cells expressing human M3, 25° C., 60 min; read-out: BINDING TO RECPTOR M3 (IC50 nM).
For `O=C(O[C@H]1CN2CCC1CC2)N(Cc1ccccc1)c1ccccc1` [Example 1, Benzylphenylcarbamic acid 1-azabicyclo[2.2.2]oct-3-(R)yl ester], the IC50 was found to be 5 nM.
The same measure, in the same setting: the same measure for “1-Allyl-3-(R)(phenylthiophen-2-ylmethylcarbamoyloxy)-1-azoniabicyclo [2.2.2]octane; bromide [Example 92]”: 11.5 nM.
The same measure, in the same setting: the same measure for “3-(R)(Phenylthiophen-3-ylmethylcarbamoyloxy)-1-(2-phenoxyethyl)-1-azonia bicyclo[2.2.2]octane; bromide [Example 136]”: 9 nM; for `CCCCN(C(=O)O[C@H]1C[N+]2(CC=Cc3ccccc3)CCC1CC2)c1ccccc1.[Br-]` [Example 58, 3-(R)(Butylphenylcarbamoyloxy)-1-(3-phenylallyl)-1-azoniabicyclo[2.2.2]octane; bromide]: 8 nM; for `CCCCN(C(=O)O[C@H]1C[N+]2(CCOc3ccccc3)CCC1CC2)c1ccccc1` [Example 79, 3-(R)(Butylphenylcarbamoyloxy)-1-(2-phenoxyethyl)-1-azoniabicyclo[2.2.2]octane; bromide]: 14 nM.
On the same count and under the same terms, then `O=C(O[C@H]1C[N+]2(CCCc3cccs3)CCC1CC2)N(Cc1cccs1)Cc1cccs1` [Example 146, 3-(R)(bis-thiophen-2-ylmethylcarbamoyloxy)-1-(3-thiophen-2-ylpropyl)-1-azonia bicyclo[2.2.2]octane; bromide], with 14.4 nM; and `O=C(O[C@H]1C[N+]2(CCOc3ccccc3)CCC1CC2)N(Cc1cccs1)c1ccccc1` [Example 91, 1-(2-Phenoxyethyl)-3-(R)(phenylthiophen-2-ylmethylcarbamoyloxy)-1-azonia bicyclo[2.2.2]octane; bromide], with 6.8 nM.
As to `O=C(O[C@H]1C[N+]2(CCOc3ccccc3)CCC1CC2)N(Cc1ccccc1)c1ccccc1` [Example 32, 3-(R)(Benzylphenylcarbamoyloxy)-1-(2-phenoxyethyl)-1-azoniabicyclo[2.2.21 octane; bromide], the IC50 worked out at 8 nM.
Same read-out and setting: the same measure for `O=C(O[C@H]1CN2CCC1CC2)N(Cc1ccco1)Cc1ccco1` [Example 156, bis-Furan-2-ylmethylcarbamic acid 1-azabicyclo[2.2.2]oct-3-(R)yl ester]: 18 nM; for `O=C(O[C@H]1CN2CCC1CC2)N(Cc1cccs1)c1ccccc1` [Example 82, Phenylthiophen-2-ylmethylcarbamic acid 1-azabicyclo[2.2.2]oct-3-(R)yl ester]: 4.5 nM.
With `O=C(O[C@H]1CN2CCC1CC2)N(Cc1ccco1)c1ccccc1` [Example 153, Furan-2-ylmethylphenylcarbamic acid 1-azabicyclo[2.2.2]oct-3-(R)yl ester], the IC50 was 6 nM.
On the same count and under the same terms, then `C=CC[N+]12CCC(CC1)[C@@H](OC(=O)N(Cc1ccccc1)c1ccccc1)C2.[Br-]` [Example 6, 1-Allyl-3-(R)(benzylphenylcarbamoyloxy)-1-azoniabicyclo[2.2.2]octane; bromide], with 18 nM.
Same read-out and setting: then `O=C(O[C@H]1C[N+]2(CCCc3ccccc3)CCC1CC2)N(Cc1cccs1)Cc1cccs1` [Example 142, 3-(R)(bis-thiophen-2-ylmethylcarbamoyloxy)-1-(3-phenylpropyl)-1-azoniabicyclo [2.2.2]octane; bromide], with 17.8 nM.
On the same count and under the same terms, the same measure for `O=C(O[C@H]1CN2CCC1CC2)N(Cc1ccsc1)c1ccccc1` [Example 126, Phenylthiophen-3-ylmethylcarbamic acid 1-azabicyclo[2.2.2]oct-3-(R)yl ester]: 8.6 nM; for `O=C(O[C@H]1C[N+]2(CCCc3ccccc3)CCC1CC2)N(Cc1ccccc1)c1ccccc1.[Br-]` [Example 31, 3-(R)(Benzylphenylcarbamoyloxy)-1-(3-phenylpropyl)-1-azoniabicyclo[2.2.2]octane; bromide]: 8 nM; for `O=C(O[C@H]1C[N+]2(CC=Cc3ccccc3)CCC1CC2)N(Cc1ccccc1)c1ccccc1.[Br-]` [Example 5, 3-(R)(Benzylphenylcarbamoyloxy)-1-(3-phenylallyl)-1-azoniabicyclo[2.2.2]octane; bromide]: 11.1 nM.
On to `O=C(O[C@H]1C[N+]2(CCCc3cccs3)CCC1CC2)N(Cc1cccs1)c1ccccc1` [Example 90, 3-(R)(phenylthiophen-2-ylmethylcarbamoyloxy)-1-(3-thiophen-2-ylpropyl)-1-azoniabicyclo[2.2.2]octane; bromide], for which the IC50 was found to be 9.2 nM.
